“Also recorded” adds a separate entry of the source.
Legend:
hNav1.6 = hNav1.6 (Homo sapiens, UniProt Q9UQD0); format: cell-based
[1] = system: human iPS-derived cardiomyocytes; test: Automated patch-clamp of Na+ current in human iPS-derived cardiomyocytes; format: cell-based
Protocol: The control hiPSC cell line (ITXi002-A; IRX5-Wt[16]; RRID:CVCL_B5QD) was generated from primary dermal fibroblasts and previously characterized.[17–19] hiPSCs were maintained at 37°C, 5% CO2, 21% O2 in StemMacs PSC-Brew XF human medium (Miltenyi Biotec, #130-127-865) on culture plates coated with 0.05 mg/mL Matrigel hESC-Qualified Matrix (Corning, #354277) in DMEM F12 (Gibco, #11320033). At 75% confluency, the cells were passaged using the Gentle Cell Dissociation Reagent (StemCell Technologies, #07174).
We generated right ventricular-like cardioids on 96-well low-attachment plates using the Schmidt et al. (2023) protocol.[20] At D15.5, cardioids were pooled, dissociated, and replated as a monolayer in MW12 plates (Falcon, #353047) coated with Matrigel (Corning, #354277) for automated patch-clamp, and as single cells in 35-mm Petri dishes (NUNC #055055) coated with Matrigel for manual patch-clamp. Immediately before patch-clamp recording, cardiomyocytes were single-cell dissociated using Accutase (Sigma, #A6964).
For human iPSC-derived cardiomyocytes recordings, cells were resuspended at 300 000 cells/mL in a solution composed of 50% culture media and 50% extracellular buffer containing (in mM) 140 NaCl, 4 KCl, 2 CaCl2, 1 MgCl2, 5 glucose, and 10 HEPES (pH 7.4, osmolarity 298 mOsm) supplemented with 5 µM nifedipine. Single-hole, low-resistance chips (3–5 MΩ) were used. The intracellular solution contained (in mM) 10 KCl, 110 KF, 10 NaCl, 1 MgCl2, 1 CaCl2, 10 Ethylene Glycol Tetra-acetic Acid (EGTA), and 10 HEPES (pH 7.2, osmolarity 280 mOsm). Currents were recorded and analysed as previously described for stable cell lines.

[2] = system: adult rat ventricular myocytes; format: cell-based
[3] = system: adult rat ventricular cardiomyocytes; test: Calcium imaging (SCR events) in isolated rat cardiomyocytes; format: cell-based
Protocol: Eleven-week-old Wistar Han rats were euthanized by intraperitoneal (i.p.) injection of a lethal dose of pentobarbital (140 mg/kg, Euthasol®). Subsequently, the hearts were quickly excised and rinsed in cold calcium-free Tyrode solution with the following composition (in mM): 118 NaCl, 4.17 KCl, 1.2 MgSO4, 1.2 KH2PO4, 21 NaHCO3, 11 glucose, and 5 taurine, at pH 7.4. The aorta was promptly cannulated, and the hearts were perfused in a retrograde fashion with warm (37–38°C) Tyrode containing 1.25 mM CaCl2 to flush the coronary arteries of blood and then with a Tyrode solution supplemented with 1 mg/mL collagenase type 2 (Worthington Biochemical Corp, Lakewood, NJ) and 0.2 U.mL^−1 protease type XIV (Sigma, Poole, UK) during 15–20 min. Once enzymatic digestion is completed, ventricles were shredded into small pieces with surgical scissors in 0.5 mM Ca^2+ Tyrode solution, filtered through a 200-µm mesh, and then resuspended in 1 mM Ca^2+ Tyrode solution for 1 h at RT. Isolated cardiomyocytes were incubated in the dark with Fura-2-AM calcium probe (2 µM in 20% v/v DMSO; Life Technologies) for 15 min. Cardiomyocytes were then loaded onto the IonOptix system (IonOptix Corporation, U.S.A.) and perfused with warm (37°C) Tyrode solution. Cardiomyocytes were stimulated at 0.5 Hz using a MyoPacer field stimulator (20 V, 7 ms) to achieve steady state. Fura-2 fluorescence (F) at 510 nm was used to measure cytoplasmic Ca^2+ concentration variation by exciting with UV light at 340 and 380 nm. Cells were paced for 1 to 2 min, ensuring stabilization of the signals, and the effects of the peptides were measured at the end of a 5 min application time. 30-s-long periods were used as the unit duration (representing 15 Ca^2+ transients) during control and after the perfusion of the compound to count the number of arrhythmogenic transients.

isolated rat heart = test: Ex vivo cardiac electrophysiological recordings (Langendorff, MEA)
Protocol: Eleven-week-old Wistar-Han rats were first heparinized (heparin sodium, 0.5 U/g i.p.) and then euthanized by i.p. injection of 140 mg/kg pentobarbital (Euthasol®). Hearts were quickly excised and immersed in a cold modified Krebs-Henseleit solution (in mM): 116 NaCl, 5 KCl, 1.1 MgSO4, 7 H2O, 0.35 NaH2PO4, 27 NaHCO3, 10 glucose, and pH 7.4. The aorta was cannulated, and the hearts were perfused on a Langendorff system with warm (36.5–37.5°C) and oxygenated (95% O2/5% CO2) Krebs-Henseleit solution supplemented with 1.8 mM CaCl2, 1 mM lactate, and 0.2 mM pyruvate (control solution) at a constant flow rate of 12 mL/min. Once connected to the Langendorff perfusion system, hearts were perfused with control solution for 10 min to stabilize their activities. Electrical activity of the upper part of the right ventricle was assessed using a 64-electrode array (0.2-mm electrode diameter; 0.36-mm interelectrode distance) connected to an EMS64-USB-1002 amplifier. Single-lead ECG was acquired to monitor global cardiac electrical activity. Data were sampled at 10 kHz per channel and acquired by EMapRecord5 (Mappinglab, Oxford, UK). Data were obtained at baseline (2 min before compound perfusion) and during AaH-II* perfusion for 10 min at various concentrations. Data were analysed using EMapScope5 (Mappinglab, Oxford, UK). Activation times were determined as the point of maximal negative slope. All activation times were related to the timing of the first detected waveform and then used to draw activation maps. An average of three complexes was used for activation time and conduction velocity analyses, while interbeat interval was measured as the average of 10 consecutive intervals. The index of inhomogeneity was calculated as previously described.[23] Arrhythmias were quantified over a period of 2 min in control and after peptide perfusion.

Wistar-Han rats = format: in vivo, rat; details: rat, in vivo, iv
[4] = rat, in vivo, iv

hNav1.6, sequence (Q9UQD0 other isoform, or with tags, fused parts or gaps): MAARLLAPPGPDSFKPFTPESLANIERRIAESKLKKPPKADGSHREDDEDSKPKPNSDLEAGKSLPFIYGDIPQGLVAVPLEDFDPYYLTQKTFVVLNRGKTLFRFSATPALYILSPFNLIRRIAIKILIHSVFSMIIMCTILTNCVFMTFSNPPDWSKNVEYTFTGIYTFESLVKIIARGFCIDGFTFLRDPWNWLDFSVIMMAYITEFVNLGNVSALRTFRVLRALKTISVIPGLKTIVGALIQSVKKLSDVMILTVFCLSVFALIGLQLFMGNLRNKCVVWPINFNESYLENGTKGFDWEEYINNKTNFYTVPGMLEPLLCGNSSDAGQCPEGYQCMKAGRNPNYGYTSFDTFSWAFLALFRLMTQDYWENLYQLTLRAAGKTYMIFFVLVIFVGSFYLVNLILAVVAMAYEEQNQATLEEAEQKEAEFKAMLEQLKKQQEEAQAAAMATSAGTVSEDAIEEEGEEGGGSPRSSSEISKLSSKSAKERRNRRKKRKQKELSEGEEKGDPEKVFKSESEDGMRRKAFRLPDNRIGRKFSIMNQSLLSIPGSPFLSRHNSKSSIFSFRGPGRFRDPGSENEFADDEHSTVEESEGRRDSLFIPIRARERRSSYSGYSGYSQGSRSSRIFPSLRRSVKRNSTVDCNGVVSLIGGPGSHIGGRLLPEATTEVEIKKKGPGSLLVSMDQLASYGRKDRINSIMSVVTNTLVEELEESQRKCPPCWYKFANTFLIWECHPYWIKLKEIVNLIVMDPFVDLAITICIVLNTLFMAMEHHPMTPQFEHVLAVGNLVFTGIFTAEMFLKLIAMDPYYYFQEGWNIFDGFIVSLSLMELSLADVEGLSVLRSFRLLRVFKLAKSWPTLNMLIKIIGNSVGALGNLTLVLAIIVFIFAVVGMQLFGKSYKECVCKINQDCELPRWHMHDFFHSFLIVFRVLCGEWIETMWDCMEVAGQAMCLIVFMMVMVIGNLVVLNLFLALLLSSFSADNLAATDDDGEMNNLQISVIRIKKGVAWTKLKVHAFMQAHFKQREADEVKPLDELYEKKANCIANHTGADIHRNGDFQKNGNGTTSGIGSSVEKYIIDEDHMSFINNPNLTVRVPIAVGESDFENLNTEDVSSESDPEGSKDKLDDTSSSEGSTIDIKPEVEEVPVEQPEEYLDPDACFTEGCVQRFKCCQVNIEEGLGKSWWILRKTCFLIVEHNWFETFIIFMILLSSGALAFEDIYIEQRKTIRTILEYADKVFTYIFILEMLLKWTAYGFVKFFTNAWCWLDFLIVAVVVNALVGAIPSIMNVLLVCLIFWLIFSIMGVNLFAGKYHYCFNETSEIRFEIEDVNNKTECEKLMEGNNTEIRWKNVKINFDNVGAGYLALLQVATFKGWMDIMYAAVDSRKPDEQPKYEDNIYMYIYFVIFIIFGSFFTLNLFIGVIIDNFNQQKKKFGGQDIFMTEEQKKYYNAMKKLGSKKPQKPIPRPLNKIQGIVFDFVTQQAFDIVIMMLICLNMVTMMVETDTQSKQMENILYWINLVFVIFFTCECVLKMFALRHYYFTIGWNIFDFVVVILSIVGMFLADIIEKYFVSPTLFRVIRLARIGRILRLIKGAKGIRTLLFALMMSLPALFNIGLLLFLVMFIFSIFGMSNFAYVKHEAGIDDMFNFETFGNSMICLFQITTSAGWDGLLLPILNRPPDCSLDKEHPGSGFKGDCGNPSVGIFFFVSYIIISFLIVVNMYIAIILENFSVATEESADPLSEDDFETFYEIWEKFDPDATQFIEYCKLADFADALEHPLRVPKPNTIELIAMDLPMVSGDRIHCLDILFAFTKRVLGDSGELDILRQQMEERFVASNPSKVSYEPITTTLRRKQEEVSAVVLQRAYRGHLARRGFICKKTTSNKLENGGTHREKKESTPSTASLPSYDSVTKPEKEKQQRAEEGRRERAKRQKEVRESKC

Q: With `NC1=N[C@H](O)[C@H]2[C@H]3O[C@]4(O)O[C@@H]([C@@H](O)[C@@]2(N1)[C@@H]4O)[C@]3(O)CO` [TTX, tetrodotoxin] as the molecule, how does the “block of AaH-II*-modified hNav1.6 currents” value (hNav1.6) read?
A: complete block of hNav1.6 currents

Q: What about the “block of AaH-II*-triggered INaL” value [1] of the same molecule?
A: entirely blocked; also recorded: fully blocked

Q: And the “block of AaH-II* responses” value [2]?
A: blocked

Q: And the “calcium transient amplitude and time to peak” value [3]?
A: reduce the amplitude and increase the time to peak of regular calcium transients moderately

Q: And the “cells presenting SCR events (SCR cells / cells)” value [3]?
A: does not by itself trigger the appearance of SCR events

Q: What about the “interbeat interval (bradycardia)” value (isolated rat heart) of the same molecule?
A: small bradycardic effect

Q: And the “ventricular conduction velocity / activation time” value (isolated rat heart)?
A: unaffected; also recorded: does not affect ventricular conduction velocity

Q: And the P wave (Wistar-Han rats)?
A: 16.3 ± 1.4 ms

Q: What about the PR (Wistar-Han rats) of the same molecule?
A: 48.5 ± 3.3 ms

Q: And the QRS (Wistar-Han rats)?
A: 18.2 ± 0.7 ms

Q: And the QTc (Wistar-Han rats)?
A: 45.9 ± 2.2

Q: What about the RR (Wistar-Han rats) of the same molecule?
A: 194.7 ± 9.3 ms

Q: And the RR interval (Wistar-Han rats)?
A: increases the RR interval progressively with increasing doses

Q: And the T wave area (Wistar-Han rats)?
A: 1.1 ± 0.1 mV/ms

Q: And the “arrhythmic rats (rats / all rats)” value (Wistar-Han rats)?
A: clearly non-arrhythmic

Q: And the circulating plasmatic concentration [4]?
A: 403 ± 44 nM
